According to patent US20190161516A1, “PROTEASOME INHIBITORS” (University of Kentucky Research Foundation, priority 2017, published 2019):

How the values were obtained:
[1] = system: COX-2; assay: COX-2 expression by immunohistochemical analysis of hippocampal tissues; type: in vivo; conditions: hippocampal tissues from APPsw mouse, FIG. 11A right panel
Procedure: To directly verify the role of LMP2 in neuroinflammation pathways, we measured the expression of COX-2 by immunohistochemical analysis of hippocampal tissues from APPsw mouse.
Frozen tissues were cut into 30 μm thick sections and stored free floating in cryoprotectant solution (30% ethylenglycol, 20% glycerol, 50 mM sodium phosphate buffer, pH 7.4) at 4° C. until further use. For immunohistological staining, sections were rinsed in 1×PBS, incubated in blocking buffer (1×PBS containing 0.3% Triton X-100 and 10% normal goat serum) for 1 hr at room temperature and primary antibodies for GFAP (1:1000; Abcam) and Iba-1 (1:500; Abcam) were diluted in 1×PBS/0.3% triton X-100/5% normal goat serum and incubated over night at 4° C. Sections were washed with 1×PBS to wash off excessive primary antibodies, incubated with species specific peroxidase-coupled secondary antibodies (goat anti-mouse or goat anti-rabbit (1:300, Abcam)) diluted in 1×PBS/0.3% Triton X-100/5% normal goat serum and incubated for 1 h on a shaker at RT before developed with liquid diaminobezadine (DAB) (Dako, K3647). Sections were counterstained with matured hematoxylin, followed by dehydration in an ascending alcohol series before covered using Roti®-Histokitt II mounting medium. […] Fluorescence imaging was performed using an Olympus XM10 monochrome fluorescence CCD camera (Olympus, Germany).

[2] = system: reactive astrocytes and microglia; assay: Immunohistochemical analysis of hippocampal tissues (GFAP, Iba1); type: in vivo, mouse
Excerpt: Activation of neuroglia is closely linked to neuroinflammation, which is reported to be one of major factors involved in the development and progression of AD. Therefore, we set out to investigate whether LMP2 inhibitors could block the activation of astrocytes and microglia. We performed immunohistochemical analysis of hippocampal tissues isolated from the brains of both APPsw and LPS-induced mice, using GFAP and Iba1 as standard markers for reactive astrocytes and microglial, respectively.
Frozen tissues were cut into 30 μm thick sections and stored free floating in cryoprotectant solution (30% ethylenglycol, 20% glycerol, 50 mM sodium phosphate buffer, pH 7.4) at 4° C. until further use. For immunohistological staining, sections were rinsed in 1×PBS, incubated in blocking buffer (1×PBS containing 0.3% Triton X-100 and 10% normal goat serum) for 1 hr at room temperature and primary antibodies for GFAP (1:1000; Abcam) and Iba-1 (1:500; Abcam) were diluted in 1×PBS/0.3% triton X-100/5% normal goat serum and incubated over night at 4° C. […] Fluorescence imaging was performed using an Olympus XM10 monochrome fluorescence CCD camera (Olympus, Germany).

[3] = target: T1, LMP7/β5i (Homo sapiens, UniProt P20618+P28062); assay: Proteasome activity assay, purified 20S proteasome, Ac-ANW-AMC; type: biochemical
T1 construct: purchased R&D Systems
Procedure: Purified 20S human proteasomes (CP and IP, R&D Systems) were used to assess the in vitro inhibition of proteasome catalytic activity by LMP2 inhibitors. […] Reactions were initiated by the addition of fluorogenic substrates containing the AMC (7-amino-4-methylcoumarin) group. Specifically, the following substrates were used: Suc-LLVY-AMC (CT-L activity, 100 μM), Ac-PAL-AMC (LMP2, 100 μM), Ac-WLA-AMC (β5, 20 μM), Ac-nLPnLD-AMC (β1,100 μM), Ac-RLR-AMC (β2/2i, 20 μM), and Ac-ANW-AMC (β5i, 100 μM). The fluorescence of liberated AMC was measured over a period of 90 min at 360 and 460 nm on a SpectraMax M5 fluorescence plate reader (Molecular Devices). For the proteasome activity of brain tissues isolated from AD mice, tissues were homogenized in RIPA buffer (50 mM Tris Cl, pH 7.4, 150 mM NaCl, 5 mM EDTA, 1% Nonidet P-40, 1% sodium deoxycholate, 0.1% SDS, 1% aprotinin, 50 mM NaF) and sonicated. Samples were centrifuged for 40 min at 14,000×g (4° C.). Protein concentration was determined using the Bradford Assay according to the manufacturer's protocol. Finally, samples were loaded onto a 96-well plate followed by the addition of the substrate (Ac-PAL-AMC) at 37° C. Fluorescence was recorded for 90 min using a Synergy-HT (Bio Tek) plate reader.

[4] = system: Aβ deposition in APPsw mouse brain; assay: Aβ in hippocampal tissues by ELISA and Thioflavin T staining; type: in vivo; conditions: versus APPsw control, FIG. 9
Excerpt: Given the data showing improved learning and memory of LMP2 inhibitor-treated mice and the role of Aβ deposition in memory dysfunction, we suspected that LMP2 inhibitors promote Aβ clearance in the brain of APPsw mice. To test this, we measured the expression levels of Aβ in hippocampal tissues isolated from the brains of APPsw mouse, using a ELISA-based assay and Thioflavin T (ThT) staining. […] Taken together, it appears that LMP2 inhibitors exert its anti-AD efficacy in these animal models independent of Aβ deposition. […] As a result, tau protein has become a prominent target for developing disease-modifying drugs. Given this, we wondered whether LMP2 inhibitors could block tau aggregation. To test this, we used HEK293-tau-BiFC cells to monitor the impacts of LMP2 inhibitors on tau aggregation.
Aβ1-42 levels were determined using specific ELISA Kit (Cusabio Biotech Co., Ltd., Wilmington, Del., USA). Experiments were performed according to each manufacturer's instructions. In brief, samples and standards were added into the pre-coated plate and incubated for 2 hours at 37° C. […] The absorbance was measured at 450 nm using a microplate reader (Sunrise™, TECAN, Switzerland) after adding stop solution.
Frozen brain tissues were cut into 30 μm sections by using cryostat microtome (Leica CM1850; Leica Microsystems). […] The Thioflavin T staining was examined by using a fluorescence microscope.

- IC50 [3]: > 10 µM
SMILES: CC(=O)NCC(=O)N1CCC[C@H]1C(=O)N[C@@H](Cc1ccccc1)C(=O)N[C@@H](CC(C)C)C(=O)[C@@]1(C)CO1 [YU102]
- COX-2 upregulation [1]: significantly curtails COX-2 upregulation
- activation of astrocytes ([2]; GFAP, FIG. 11A): inhibits activation of astrocytes
- activation of microglia ([2]; Iba1, FIG. 11B): inhibits activation of microglia
- Aβ deposition [4]: no difference in Aβ deposition
